Measurements taken from patent US10870876B2, “Method for detecting a presence or absence of at least one first zone of inhibition” (BIOMÉRIEUX, priority 2015, dated 2020).

Tested on: Staphylococcus aureus ATCC 25923
Assay: Disk-diffusion test with ampicillin disk, inoculation by flooding or by droplets along an axis
Format: cell-based
Conditions: disk containing 10 pig of ampicillin, 0.5 McFarland, 37° C. for 6 hours 30 minutes; similar for flooding and droplets; EUCAST threshold R 18 mm
Description: A conventional test of sensitivity is the disk-diffusion test, often referred to as the Kirby-Bauer method. This standardized method involves the inoculation of an agar culture medium (for example a 90 mm or 150 mm Mueller-Hinton agar) with a sample, generally standardized to 0.5 McFarland, obtained from a microbial isolate. The inoculation may be performed by conventional manual methods, by means of a swab or a loop. Alternatively, the inoculation may be performed by flooding the agar with a suspension standardized to one tenth of 0.5 McFarland, followed by removal of the excess sample. Following the inoculation, one or more paper disks impregnated with defined concentrations of antibiotics are deposited on the surface of the agar. After an incubation period, generally from 16 to 20 hours at 35° C., the diameter of the zone(s) of inhibition around the disks makes it possible to determine the sensitivity of the microorganism present in the inoculated sample to each of the antimicrobial agents impregnated in each disk. Due to the standardization of the Kirby-Bauer method, the results of this method are analyzed by comparing the diameter of each of the zones of inhibition with the recommendations published by regulatory bodies such as NCCLS (National Committee for Clinical Laboratory Standards) or EUCAST (European Committee on Antimicrobial Susceptibility Testing). […]

CC1(C)S[C@@H]2[C@H](NC(=O)[C@H](N)c3ccccc3)C(=O)N2[C@H]1C(=O)O [Ampicillin, ampicillin]
diameter D of the zone of inhibition: 22 mm
